Test results: PMC8373237 (Antimicrobial Agents and Chemotherapy, 2021)
In brackets after ≈: the same amount, converted by molar mass. Like-named read-outs stand apart in the source and are kept apart here. Marks after values point to notes of the source that are not given here. Square brackets hold non-standard residues; d marks the D form. Peptide text beside a SMILES is read from it. NPrGly = CCCNCC(=O)O; Sar = CNCC(=O)O

How the values were obtained:
P. aeruginosa (PAO1) = format: cell-based, Pseudomonas aeruginosa
[1] = tested on: C. trachomatis serovar L2 in HeLa cells; test: Chlamydia infection of HeLa cells (primary and secondary infection); format: cell-based, Chlamydia trachomatis; parameters: key to lowest known inhibitory concentration (∼), cell-based infection assay, Chlamydia: NE: No effect observed
Protocol: Primary infections. HeLa cell monolayers were infected with C. trachomatis serovar L2 at a multiplicity of infection (MOI) of 1.0 in the presence of one of the following compounds at 9 μM: DMSO, 4EpDN, or 4EpDN 2Sar. Cells were incubated for 24 h in the presence of the above-listed compounds at 37°C and then fixed with 4% paraformaldehyde (PFA). Cells were stained for IncA (Chlamydia inclusion membrane marker), DNA (with DAPI), and MOMP (Chlamydia major outer membrane protein) simultaneously. This method of staining allows visualization of the inclusion independent of MOMP synthesis or transport. The percentage of cells infected (i.e., stained positively for the listed Chlamydia markers) in the presence of the compounds was quantified using confocal microscopy. Quantifications of inclusion take into account both DAPI staining and indirect immunofluoresence with an antibody to MOMP. Ten randomly selected fields of view were measured per experiment. The data represent three biological replicates.
Secondary infections. HeLa cell monolayers were infected with C. trachomatis serovar L2 at an MOI of 1.0 in the presence of one of the following compounds at 9 μM: DMSO, 4EpDN, or 4EpDN 2Sar. Cells were incubated for 48 h in the presence of the above-listed compounds at 37°C. Infected cells were then lysed, and the lysate was applied to fresh HeLa monolayers to enumerate infectious particles. These secondary infections were fixed in 4% PFA at 24 hpi and were stained against MOMP and DNA. The infectious units per ml (IFU/ml) were calculated by averaging the number of infected cells in each of 10 randomly selected fields of view at ×40 magnification on a confocal microscope and multiplying this by the appropriate dilution and area factors. The data represent four biological replicates.

[2] = tested on: P. aeruginosa PA103 T3SS (ExoU secretion); format: cell-based, Pseudomonas aeruginosa
Kinetic solubility = format: physicochemical
Protocol: […] Then, […] of 15 mM stock compound was added to make a solution of 120 μM final concentration with 0.8% DMSO. The solution was shaken at 37°C for ∼2 h. The solution was passed over a 0.7- μM glass fiber filter. Then, the solution was diluted 1:4 in acetonitrile to crash out any proteins. The solution was centrifuged at 500 × g for 10 min. Avoiding the pellet, 10 μl of supernatant was added to a fresh plate with 90 μl of acetonitrile. The final dilution is 40 times lower. Next, 10 μl of 40× dilution of solution was injected on the Orbi-trap. A 1 μM standard was used for the ratiometric comparison, and the assay was done in triplicate.

[3] = tested on: Salmonella enterica Typhimurium SPI-1 T3SS (SipA, SipC secretion); format: cell-based
Y. pseudotuberculosis = format: cell-based, Yersinia pseudotuberculosis; details: 2xYT, 9-120 µM, 12 h
[4] = tested on: Salmonella flagellar T3SS (FliC, FliD secretion); format: cell-based, Salmonella enterica Typhimurium; parameters: key to Fla fliC (Table 2): NE: No effect observed
[5] = tested on: Y. enterocolitica Ysa T3SS (YspF secretion); format: cell-based, Yersinia enterocolitica
Ssa-Esc T3SS, EPEC/EHEC [6] = details: culture-based secretion assay, cited from earlier work
[7] = tested on: Salmonella enterica Typhimurium SPI-1 T3SS; details: cited from earlier work
[8] = tested on: Yersinia pseudotuberculosis Ysc T3SS; details: culture-based secretion assay; ref [87]; cited from earlier work
[9] = tested on: Salmonella enterica Typhimurium SPI-1 T3SS; details: culture-based secretion assay; ref [87]; cited from earlier work
Ssa-Esc T3SS, EPEC/EHEC [10] = tested on: Ssa-Esc T3SS, EPEC/EHEC; parameters: method as in PMID 33316970; details: translocation assay; ref [109]; read-out: IC50, EspF translocation; cited from earlier work
[11] = tested on: Yersinia pseudotuberculosis Ysc T3SS; details: cited from earlier work
[12] = tested on: Pseudomonas aeruginosa Psc T3SS; details: cell-based infection assay, ref [67], cited from earlier work
[13] = tested on: Chlamydiales T3SS, Chlamydia; details: cell-based infection assay, ref [67], cited from earlier work
Ssa-Esc T3SS, EPEC/EHEC [14] = details: biochemical assay, cited from earlier work
[15] = tested on: Yersinia pseudotuberculosis Ysc T3SS; details: cited from earlier work; remark: listed apart in the source
[16] = tested on: Salmonella enterica Typhimurium SPI-1 T3SS; details: translocation assay, cited from earlier work

CCCN1CC(=O)N(C)CC(=O)N[C@@H](CC(C)C)C(=O)N[C@@H]([C@@H](C)CC)C(=O)N[C@H](CC(C)C)C(=O)N[C@H](Cc2ccccc2)C1=O [4EpDN 2Sar, 4-EpD1,2N 2Sar] (cyclo(I[dL][dF][NPrGly][Sar]L))
bacterial viability in broth culture (P. aeruginosa (PAO1)): did not affect bacterial viability
inhibition of formation of infectious progeny ([1]; 9 μM, EBs collected at 48 hpi, fresh monolayers 24 h): not
decrease of primary inclusion formation ([1]; 9 μM, HeLa cells, 24 hpi): not
lowest known inhibitory concentration (∼), cell-based infection assay, Chlamydia ([1]; Table 2, Chlamydiales): NE^d
T3SS inhibitory activity (ExoU secretion), in words [2]: significantly reduced activity
inhibition of ExoU secretion ([2]; 9 µM): no effect
inhibition of ExoU secretion ([2]; 60 µM): no effect
IC50 ([2]; read-out: IC50 (Table S1)): ~140 µM
IC50 ([2]; read-out: IC50, inhibition of secretion of T3SS effector ExoU): 140 µM
solubility (Kinetic solubility; DMEM (no antibiotics)): 61 µM (≈ 40.1 µg/mL)
solubility (Kinetic solubility; M9): 61 µM (≈ 40.1 µg/mL)
concentrations at which inhibition of SipC and SipA secretion was seen [3]: greater than 30 μM
lowest known inhibitory concentration (∼), SipAC secretion [3]: ∼30 SipAC^b μM
bacterial viability in broth culture (Y. pseudotuberculosis): did not affect bacterial viability
Fla fliC (Table 2) [4]: NE^d
effect on FliC secretion, in words [4]: no significant effect
effect on FliD secretion, in words [4]: no significant effect
secretion of YspF, in words [5]: did not affect its secretion

C/C=C\C=C\[C@@H]1O[C@](O)([C@H](CC)C(=O)NC/C=C/C=C(\C)[C@@H](OC)[C@@H](C)[C@@H]2O[C@H](/C=C/C=C/C=C(\C)C(=O)c3c(O)ccn(C)c3=O)[C@H](O)[C@@H]2O)[C@H](O)[C@H](O)C1(C)C [Aurodox]
IC50, EspABCD secretion (Ssa-Esc T3SS, EPEC/EHEC [6]; ref [103]): 0.5 μg/ml EspABCD^b

O=C/C=C/c1ccccc1 [Cinnamaldehyde]
lowest known inhibitory concentration (∼), SPI-1, SipAB ([7]; footnotes c and e: cell-based infection assay, SipAB biochemical assay, ref [106]): ∼100^c SipAB^e μM

O=C(O[C@@H]1Cc2c(O)cc(O)cc2O[C@@H]1c1cc(O)c(O)c(O)c1)c1cc(O)c(O)c(O)c1 [Epigallocatechin gallate]
lowest known inhibitory concentration (∼), Yops secretion [8]: ∼16 μg/ml Yops^b
lowest known inhibitory concentration (∼), Sips secretion [9]: ∼12μg/ml Sips^b
IC50 (Ssa-Esc T3SS, EPEC/EHEC [10]): 1.8 µM
lowest known inhibitory concentration (∼), EspB secretion (Ssa-Esc T3SS, EPEC/EHEC [6]; ref [87]): ∼16 μg/ml EspB^b

O=[N+]([O-])c1cc(CN2CCN(c3ccccc3)CC2)c(O)c2ncccc12 [INP1750]
EC50 [11]: 12.4 µM
lowest known inhibitory concentration (∼), PA [12, 68]: ∼80^c μM
MIC, Chlamydia [13, 68]: 25 MIC^c μM

O=[N+]([O-])c1cc(CN2CCN(c3ccc(F)cc3)CC2)c(O)c2ncccc12 [INP1855]
EC50 [11]: 6.3 µM
lowest known inhibitory concentration (∼), PA [12, 69]: ∼60^c μM
MIC, Chlamydia [13, 69]: 3.13 MIC^c μM

O=C(N/N=C/c1ccc(O)cc1O)c1ccc([N+](=O)[O-])cc1 [ME0055]
lowest known inhibitory concentration (∼), LEE genes (Ssa-Esc T3SS, EPEC/EHEC [14]; ref [76]): ∼20 LEE genes^e μM

C/C=C(\C)C(O)C(C)/C=C(C)/C=C/C/C(C)=C/Cc1[nH]c(OC)cc(=O)c1C (centres unmarked) [Mer-A 2026B]
lowest known inhibitory concentration (∼), YopM translocation [15]: ∼36; ∼9 YopM^f μM

O=c1c(O)c(-c2cc(O)c(O)c(O)c2)oc2cc(O)cc(O)c12 [Myricetin]
lowest known inhibitory concentration (∼), SipA/B translocation ([16]; ref [107]): ∼4 μg/ml SipA/B^f

C=CCc1ccc(Oc2cc(CC=C)cc(O)c2O)cc1 [Obovatol]
IC50 ([7]; cell-based infection assay, ref [89]): 19.8 µM

C/C=C(\C)[C@H](O)[C@H](C)/C=C(C)/C=C/C/C(C)=C/Cc1nc(OC)c(OC)c(O)c1C [Piercidin A1]
lowest known inhibitory concentration (∼), YopM translocation [15]: ∼36; ∼9 YopM^f μM

COCCn1c2c([n+](Cc3cnccn3)c1C)C(=O)c1ccccc1C2=O [Sepantronium bromide (YM155), Sepantronium bromide]
lowest known inhibitory concentration (∼), SseK1/SseK2, NleB (Ssa-Esc T3SS, EPEC/EHEC [14]; ref [110]): ∼2 SseK1/SseK2^e, NleB^e μM

Cc1ccc(C(C)C)c(O)c1 [Thymol]
lowest known inhibitory concentration (∼), SipA translocation ([16]; ref [90]): ∼0.2 mM SipA^f

Tannic acid
IC50 (Ssa-Esc T3SS, EPEC/EHEC [10]): 0.65 µM
